Measurements reported in US8927500B2, “Peptidomimetic macrocycles” (Aileron Therapeutics, Inc., priority 2012, dated 2015).
Like-named read-outs stand apart in the source and are kept apart here. Where a SMILES comes first, the peptide text is derived from it. Bridges are numbered along the chain shown (N, C = ends). [ ]: non-standard residue; d: D form. R8 = C=CCCCCCC[C@@](C)(N)C(=O)O; Cba = N[C@@H](CC1CCC1)C(=O)O; S5 = C=CCCC[C@](C)(N)C(=O)O

Assays:
MDM2 = MDM2 (Homo sapiens, UniProt Q00987); experiment: Competitive fluorescence polarization assay for MDM2; type: binding; settings: competitive FP assay, MDM2; for IC50: read-out: IC50 (MDM2)
MDM2, sequence (Q00987 1-125): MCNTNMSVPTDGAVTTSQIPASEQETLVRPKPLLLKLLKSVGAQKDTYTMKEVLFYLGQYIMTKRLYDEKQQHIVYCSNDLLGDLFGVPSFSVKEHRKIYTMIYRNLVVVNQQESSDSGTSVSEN

MDMX = molecular target: T1, MDMX (Homo sapiens, UniProt O15151); experiment: Competitive fluorescence polarization assay for MDMX; type: binding; settings: competitive FP assay; for IC50: read-out: IC50 (MDMX); for Ki: read-out: Ki (MDMX)
T1 sequence (O15151 1-125): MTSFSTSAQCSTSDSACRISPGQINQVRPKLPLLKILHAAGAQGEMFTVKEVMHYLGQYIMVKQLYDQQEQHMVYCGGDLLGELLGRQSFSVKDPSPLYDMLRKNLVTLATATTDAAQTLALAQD

CC(=O)N[C@@H](CC(C)C)C(=O)N[C@H](C(=O)N[C@@H](Cc1ccccc1)C(=O)N[C@]1(C)CCCCCCC=CCCC[C@@](C)(C(=O)N[C@@H](C)C(=O)N[C@@H](C)C(=O)NC(C)(C)C(=O)N[C@H](C(N)=O)C(C)C)NC(=O)[C@H](CC(C)C)NC(=O)[C@H](CCC(N)=O)NC(=O)[C@H](C)NC(=O)[C@H](Cc2c[nH]c3ccccc23)NC(=O)[C@H](Cc2ccc(O)cc2)NC(=O)[C@H](C)NC1=O)[C@@H](C)O (single isomer, unassigned) [compound 23]
IC50 (MDM2): 100 to 1000 nM | Ki (MDM2; read-out: Ki (MDM2)): 10 to 100 nM

CC(=O)N[C@@H](CC(C)C)C(=O)N[C@H](C(=O)N[C@@H](Cc1ccccc1)C(=O)N[C@]1(C)CCCCCCC=CCCC[C@@](C)(C(=O)N[C@@H](C)C(=O)N[C@@H](C)C(=O)NC(C)(C)C(=O)N[C@H](C(N)=O)C(C)C)NC(=O)[C@H](CC(C)C)NC(=O)[C@H](CCC(N)=O)NC(=O)[C@H](C)NC(=O)[C@H](Cc2c[nH]c3ccccc23)NC(=O)[C@H](Cc2ccc(O)cc2)NC(=O)[C@H](C)NC1=O)[C@@H](C)O (single isomer, unassigned) [compound 24]
IC50 (MDM2): 10 to 100 nM | Ki (MDM2; read-out: Ki (MDM2)): < 10 nM

CCCC[C@H](NC(=O)[C@H](C)NC(=O)[C@H](C)NC(=O)[C@]1(C)CCCC=CCCCCCC[C@@](C)(NC(=O)[C@H](Cc2ccccc2)NC(=O)[C@@H](NC(=O)[C@H](CC(C)C)NC(C)=O)[C@@H](C)O)C(=O)N[C@@H](C)C(=O)N[C@@H](Cc2ccc(O)cc2)C(=O)N[C@@H](Cc2c[nH]c3ccccc23)C(=O)N[C@@H](C)C(=O)N[C@@H](CCC(N)=O)C(=O)N[C@@H](CC(C)C)C(=O)N1)C(=O)N[C@@H](C)C(N)=O (single isomer, unassigned) [compound 68]
IC50 (MDM2): 100 to 1000 nM | Ki (MDM2; read-out: Ki (MDM2)): 10 to 100 nM | IC50 (MDMX): 100 to 1000 nM | Ki (MDMX): 10 to 100 nM

CC(=O)N[C@@H](CC(C)C)C(=O)N[C@H](C(=O)N[C@@H](Cc1ccc(F)c(F)c1)C(=O)N[C@]1(C)CCCCCCC=CCCC[C@@](C)(C(=O)N[C@@H](CO)C(=O)N[C@@H](C)C(=O)N[C@@H](C)C(N)=O)NC(=O)[C@H](CC2CCC2)NC(=O)[C@H](CCC(N)=O)NC(=O)[C@H](C)NC(=O)[C@H](Cc2c[nH]c3ccccc23)NC(=O)[C@H](Cc2ccc(O)cc2)NC(=O)[C@H](CCC(=O)O)NC1=O)[C@@H](C)O (single isomer, unassigned) [compound 289]
IC50 (MDMX): 10 to 100 nM | Ki (MDMX): 10 to 100 nM

CC(=O)N[C@@H](CC(C)C)C(=O)N[C@H](C(=O)N[C@@H](Cc1ccccc1)C(=O)N[C@]1(C)CCCCCCC=CCCC[C@@](C)(C(=O)N[C@@H](C)C(=O)N[C@@H](C)C(=O)N[C@@H](C)C(=O)N[C@@H](C)C(=O)N[C@H](C)C(N)=O)NC(=O)[C@H](CCC(C)C)NC(=O)[C@H](CCC(N)=O)NC(=O)[C@H](C)NC(=O)[C@H](Cc2c[nH]c3ccccc23)NC(=O)[C@H](Cc2ccc(O)cc2)NC(=O)[C@H](C)NC1=O)[C@@H](C)O (single isomer, unassigned) [compound 313]
IC50 (MDMX): 100 to 1000 nM | Ki (MDMX): 10 to 100 nM

CC(=O)N[C@@H](CC(C)C)C(=O)N[C@H](C(=O)N[C@@H](Cc1ccccc1)C(=O)N[C@]1(C)CCCCCCC=CCCC[C@@](C)(C(=O)N[C@@H](C)C(=O)N[C@@H](C)C(=O)N[C@@H](C)C(=O)N[C@@H](C)C(=O)N[C@H](C)C(N)=O)NC(=O)[C@H](CCC(C)C)NC(=O)[C@H](CCC(N)=O)NC(=O)[C@H](C)NC(=O)[C@H](Cc2c[nH]c3ccccc23)NC(=O)[C@H](Cc2ccc(O)cc2)NC(=O)[C@H](C)NC1=O)[C@@H](C)O (single isomer, unassigned) [compound 314]
IC50 (MDMX): 10 to 100 nM | Ki (MDMX): < 10 nM

CCCC[C@H](NC(=O)C(C)(C)NC(=O)[C@H](C)NC(=O)[C@]1(C)CCCC=CCCCCCC[C@@](C)(NC(=O)[C@H](Cc2ccccc2)NC(=O)[C@@H](NC(=O)[C@H](CC(C)C)NC(C)=O)[C@@H](C)O)C(=O)N[C@@H](C)C(=O)N[C@@H](Cc2ccc(O)cc2)C(=O)N[C@@H](Cc2c[nH]c3ccccc23)C(=O)N[C@@H](C)C(=O)N[C@@H](CCC(N)=O)C(=O)N[C@@H](CC(C)C)C(=O)N1)C(=O)N[C@@H](C)C(N)=O (single isomer, unassigned) [compound 392]
IC50 (MDM2): 10 to 100 nM | Ki (MDM2; read-out: Ki (MDM2)): < 10 nM

CCCC[C@H](NC(=O)CN(C)C(=O)[C@H](C)NC(=O)[C@]1(C)CCCC=CCCCCCC[C@@](C)(NC(=O)[C@H](Cc2ccccc2)NC(=O)[C@@H](NC(=O)[C@H](CC(C)C)NC(C)=O)[C@@H](C)O)C(=O)N[C@@H](C)C(=O)N[C@@H](Cc2ccc(O)cc2)C(=O)N[C@@H](Cc2c[nH]c3ccccc23)C(=O)N[C@@H](C)C(=O)N[C@@H](CCC(N)=O)C(=O)N[C@@H](CC(C)C)C(=O)N1)C(=O)N[C@@H](C)C(N)=O (single isomer, unassigned) [compound 396]
IC50 (MDM2): < 10 nM | Ki (MDM2; read-out: Ki (MDM2)): < 10 nM

CC(=O)N[C@@H](CC(C)C)C(=O)N[C@H](C(=O)N[C@@H](Cc1ccccc1)C(=O)N[C@]1(C)CCCCCCC=CCCC[C@@](C)(C(=O)N[C@@H](C)C(=O)N[C@@H](C)C(=O)N[C@@H](C)C(=O)N[C@@H](C)C(=O)NC(C)(C)C(=O)N[C@H](C)C(N)=O)NC(=O)[C@H](CC(C)C)NC(=O)[C@H](CCC(N)=O)NC(=O)[C@H](C)NC(=O)[C@H](Cc2c[nH]c3ccccc23)NC(=O)[C@H](Cc2ccc(O)cc2)NC(=O)[C@H](CCC(=O)O)NC1=O)[C@@H](C)O (single isomer, unassigned) [compound 565]
Ki (MDM2; read-out: Ki (MDM2)): 10 to 100 nM

CC(=O)N[C@@H](CC(C)C)C(=O)N[C@H](C(=O)N[C@@H](Cc1ccccc1)C(=O)N[C@]1(C)CCCCCCC=CCCC[C@@](C)(C(=O)N[C@@H](C)C(=O)N[C@@H](C)C(=O)N[C@@H](C)C(=O)N[C@@H](C)C(=O)NC(C)(C)C(=O)N[C@H](C)C(N)=O)NC(=O)[C@H](CC(C)C)NC(=O)[C@H](CCC(N)=O)NC(=O)[C@H](C)NC(=O)[C@H](Cc2c[nH]c3ccccc23)NC(=O)[C@H](Cc2ccc(O)cc2)NC(=O)[C@H](CCC(=O)O)NC1=O)[C@@H](C)O (single isomer, unassigned) [compound 566]
Ki (MDM2; read-out: Ki (MDM2)): < 10 nM

CCCCCCCCCC(=O)N[C@@H](CC(C)C)C(=O)N[C@H](C(=O)N[C@@H](Cc1ccccc1)C(=O)N[C@]1(C)CCCCCCC=CCCC[C@@](C)(C(=O)N[C@@H](CO)C(=O)N[C@@H](C)C(=O)N[C@@H](C)C(N)=O)NC(=O)[C@H](CCC(C)C)NC(=O)[C@H](CCC(N)=O)NC(=O)[C@H](C)NC(=O)[C@H](Cc2c[nH]c3ccccc23)NC(=O)[C@H](Cc2ccc(O)cc2)NC(=O)[C@H](CCC(=O)O)NC1=O)[C@@H](C)O [compound 282]
IC50 (MDMX): > 1000 nM | Ki (MDMX): > 1000 nM

CC(=O)N[C@@H](CC(C)C)C(=O)N[C@H](C(=O)N[C@@H](Cc1ccccc1)C(=O)N[C@]1(C)CCCCCCC=CCCC[C@@](C)(C(=O)N[C@@H](CO)C(=O)N[C@@H](C)C(=O)N[C@@H](C)C(N)=O)NC(=O)[C@H](CC2CCC2)NC(=O)[C@H](CCC(N)=O)NC(=O)[C@H](C)NC(=O)[C@H](Cc2c[nH]c3cc(Cl)ccc23)NC(=O)[C@H](Cc2ccc(O)cc2)NC(=O)[C@H](CCC(=O)O)NC1=O)[C@@H](C)O [compound 332]
IC50 (MDMX): 10 to 100 nM | Ki (MDMX): < 10 nM

CC(C)C[C@H](NC(=O)CN(C)C)C(=O)N[C@H](C(=O)N[C@@H](Cc1ccccc1)C(=O)N[C@]1(C)CCCCCCC=CCCC[C@@](C)(C(=O)N[C@@H](CO)C(=O)N[C@@H](C)C(=O)N[C@@H](C)C(N)=O)NC(=O)[C@H](CC2CCC2)NC(=O)[C@H](CCC(N)=O)NC(=O)[C@H](C)NC(=O)[C@H](Cc2c[nH]c3ccccc23)NC(=O)[C@H](Cc2ccc(O)cc2)NC(=O)[C@H](CCC(=O)O)NC1=O)[C@@H](C)O [compound 435]
IC50 (MDMX): 10 to 100 nM | Ki (MDMX): < 10 nM

CC(=O)N[C@@H](CC(C)C)C(=O)N[C@H](C(=O)N[C@@H](Cc1ccccc1)C(=O)N[C@]1(C)CCCCCCC=CCCC[C@@](C)(C(=O)N[C@H](C)C(N)=O)NC(=O)[C@H](CC(C)C)NC(=O)[C@H](CCC(N)=O)NC(=O)[C@H](C)NC(=O)[C@H](Cc2c[nH]c3ccccc23)NC(=O)[C@H](Cc2ccc(O)cc2)NC(=O)[C@H](CCC(=O)O)NC1=O)[C@@H](C)O [compound 589] (Ac-LTF[R8]EYWAQL[S5][dA]-NH2; staple 4-11)
Ki (MDM2; Ki (MDM2)): < 10 nM

CC(=O)N[C@@H](CC(C)C)C(=O)N[C@H](C(=O)N[C@@H](Cc1ccccc1)C(=O)N[C@]1(C)CCCCCCC=CCCC[C@@](C)(C(=O)N[C@@H](CO)C(N)=O)NC(=O)[C@H](CC2CCC2)NC(=O)[C@H](CCC(N)=O)NC(=O)[C@H](C)NC(=O)[C@H](Cc2c[nH]c3ccccc23)NC(=O)[C@H](Cc2ccc(O)cc2)NC(=O)[C@H](CCC(=O)O)NC1=O)[C@@H](C)O [compound 595] (Ac-LTF[R8]EYWAQ[Cba][S5]S-NH2; staple 4-11)
Ki (MDM2; read-out: Ki (MDM2)): > 1000 nM

CC(C)C[C@H](NC(=O)c1ccc(F)cc1)C(=O)N[C@H](C(=O)N[C@@H](Cc1ccccc1)C(=O)N[C@]1(C)CCCCCCC=CCCC[C@@](C)(C(=O)N[C@@H](CO)C(=O)N[C@@H](C)C(=O)N[C@@H](C)C(N)=O)NC(=O)[C@H](CC2CCC2)NC(=O)[C@H](CCC(N)=O)NC(=O)[C@H](C)NC(=O)[C@H](Cc2c[nH]c3ccccc23)NC(=O)[C@H](Cc2ccc(O)cc2)NC(=O)[C@H](CCC(=O)O)NC1=O)[C@@H](C)O [compound 597]
Ki (MDMX): 10 to 100 nM

CC(C)C[C@H](NC(=O)CCNC(=O)c1ccc2c(c1)C(=O)OC21c2ccc(N(C)C)cc2Oc2cc(N(C)C)ccc21)C(=O)N[C@H](C(=O)N[C@@H](Cc1ccccc1)C(=O)N[C@]1(C)CCCCCCC=CCCC[C@@](C)(C(=O)N[C@@H](CO)C(=O)N[C@@H](C)C(=O)N[C@@H](C)C(N)=O)NC(=O)[C@H](CC2CCC2)NC(=O)[C@H](CCC(N)=O)NC(=O)[C@H](C)NC(=O)[C@H](Cc2c[nH]c3ccccc23)NC(=O)[C@H](Cc2ccc(O)cc2)NC(=O)[C@H](CCC(=O)O)NC1=O)[C@@H](C)O [compound 686]
Ki (MDMX): 10 to 100 nM
